US9867884B2, “Vascular delivery systems” (Ben-Gurion University of the Negev Research and Development …, priority 2008, dated 2018)
pIC50: −log10 of the molar value. Read-outs that look alike come from different tables or passages of the source. One block for each substance: values may come before it. Ends that are not written are not given here. * marks the point of attachment. Methacryloyl = C=C(C)C(=O)*

What was measured:
E-selectin = target: T1, E-selectin (Homo sapiens, UniProt P16581); assay: Inhibition of HL-60 adhesion to recombinant soluble E-selectin coated plates (competitive inhibition assay); assay type: binding
T1 sequence (P16581 22-556 limits assumed): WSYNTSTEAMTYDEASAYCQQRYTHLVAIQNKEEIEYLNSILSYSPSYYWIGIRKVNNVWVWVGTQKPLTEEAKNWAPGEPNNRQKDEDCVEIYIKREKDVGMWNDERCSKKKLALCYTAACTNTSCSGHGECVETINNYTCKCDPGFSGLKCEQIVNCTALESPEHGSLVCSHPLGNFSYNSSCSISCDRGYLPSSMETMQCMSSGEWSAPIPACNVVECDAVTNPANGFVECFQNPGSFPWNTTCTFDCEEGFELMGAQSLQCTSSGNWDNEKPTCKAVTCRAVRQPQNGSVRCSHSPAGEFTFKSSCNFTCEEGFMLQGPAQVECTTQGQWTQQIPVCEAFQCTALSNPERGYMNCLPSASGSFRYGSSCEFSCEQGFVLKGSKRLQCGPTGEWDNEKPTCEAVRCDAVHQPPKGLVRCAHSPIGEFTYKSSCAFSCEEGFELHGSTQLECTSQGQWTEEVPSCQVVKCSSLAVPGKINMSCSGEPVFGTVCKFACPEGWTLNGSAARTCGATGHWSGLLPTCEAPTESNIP
Experimental: The percentage of bound HL-60 cells is determined with o-phenylenediamine as a substrate for myeloperoxidases released from lysed cells. […] FIG. 3B depicts binding in the presence of P-Glu-Gly-QA, PAAsLe^x and pHPMA polymers; FIG. 3C depicts binding of P-Glu-Gly-QA and P-Gly-Gly-Lys(Glu)-QA conjugates.
Affinity of Esbp and P-Esbp to E-selectin was evaluated by a competitive inhibition assay of HL-60 to immobilized E-selectin. […] FIG. 7B the results of an inhibition assay with P-Esbp and P-GG-OH, under the same procedure as in FIG. 7A. In this figure diamonds are P-Esbp and squares are P-GG-OH.
The percentage of bound HL-60 cells is determined with o-phenylenediamine as a substrate for myeloperoxidases released from lysed cells. All assays is performed in duplicates.

leukocyte adhesion = settings: have been shown (prior report); read-out: IC50 of inhibition of leukocyte adhesion; cited from earlier work
[1] = test system: E-selectin expressing cells (IVECs); assay: Flow cytometry of binding and uptake of FITC-labeled conjugates by IVECs; assay type: cell-based, human; settings: 1 h at 4° C., E-selectin expressing cells (FIG. 12)
Experimental: FIG. 11A-F depicts the results of flow cytometry assays of IVECs incubated with P-Esbp at different temperatures. FIGS. 11(A)-(D) depict results of IVECs incubated 4° C. for 1 hour, while FIGS. 11(E)-(F) depict results of IVECs incubated 37° C. for 15 hr in activated (F) and non-activated (E) cells. FIGS. 11A and 11B show results of incubation with P-Esbp at a concentration of 10 and 50 μg/ml, respectively in TNF-α activated cells, versus 11C and D, which show the results of non-activated cells incubated with the same concentration of P-Ebsp, respectively. Fluorescence, size and number of cells were all measured with GUAVA Tech-Mini Easycyte at 520 nm. Statistical analysis of the results was performed with Cytosoft software (GUAVA Tech). Gates for size and fluorescence were set according to the control experiment with P-GG-OH incubated with non activated IVEC cells.
At 37° C. […]
E-selectin expressing cells were treated with P-Esbp and P-Scrmb as described in previous examples, to determine binding, in activated and non-activated cells (FIG. 12). Cells were treated with P-Esbp and P-Scrmb conjugates for 1 h at 4° C. and evaluated for binding. […] Binding of P-Esbp and scrambled Esbp peptide sequence polymer conjugates (P-Scrmb) to E-selectin expressing cells was similarly evaluated, when cells were also contacted with or without free peptides (FIG. 13). […]

[2] = test system: E-selectin expressing cells (human IVECs); assay: Confocal microscopy of uptake and lysosomal colocalization of FITC-labeled copolymer conjugates in IVECs; assay type: cell-based; settings: Example 17, activated and non-activated human IVECs (FIG. 14)
Experimental: Internalization of P-sLe^x-FITC and P-QA-FITC conjugates by endothelial cells was studied using confocal laser scanning microscopy (CLSM). Human IVECs grown on cover glass, and treated with the polymer conjugate, and probed for localization of the polymer within lysosomal vessicles. After 24 hours incubation, cells are washed with cold phosphate-buffered saline (PBS) and fixed with 4% PFA. The cells on the cover glass are mounted in antibleach reagent on slides, examined using a CLSM, and analyzed.
Confocal microscopy was used to evaluate the subcellular fate of the FITC labeled copolymer conjugates by human immortalized vascular endothelial cells, IVECs. Lysotracker Red DND-99 (Molecular Probes, Leiden, The Netherlands) was selected to visualize lysosomes. Cells ([…]) were seeded onto gelatin coated cover slips in 24 wells plate with 500 μL endothelial cells culture medium (Promocell) and incubated for 24 hr. […] Quantitative analysis was performed using Image-Pro Plus 4.0 (Media Cybernetics, Silver Spring, Md.). Fluorescence intensities were expressed in arbitrary units per square micron. […]
Confocal microscopy was used to evaluate the uptake of P-Esbp. […] After removal of medium cells were incubated with 0.5 ml medium with 50 μg/ml of FITC labeled P-Esbp solution for 6 or 24 hours and subjected to fluorescence microscopy. […]

Substance: DITWDQLWDLMK [Esbp, reference compound]
pIC50 (E-selectin; Esbp monomer, FIG. 7A, read-out: IC50): 5.00 | pIC50 (leukocyte adhesion): 8.40

pIC50 (E-selectin; monomers, HL-60 adhesion to immobilized E-selectin, 15 min (FIG. 3A), read-out: Inhibition of 50% binding (IC50) value): 2.00
Substance: N-methacryloyl-aminopropyl-Glutamyl-Glycyl-quinic acid [MAP-Glu-Gly-QA]

Substance: P-Scrmb: scrambled Esbp peptide sequence polymer conjugate, GKMIDWTWLQLDD (SEQ ID NO: 8) (Methacryloyl-GGGKMIDWTWLQLDD; also: polymer conjugate, FITC)
percentage of labeled cells [1]: 6% | internalization and colocalization with lysosomal marker [2]: did not show reasonable internalization or colocalization
